Assay results reported in PubChem BioAssay (NCI).
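Five compound concentrations were applied to cells in 96-well plates for 48 hours; endpoints were derived by simple linear interpolation of the resulting dose-response curve. GI50: concentration for 50% inhibition of growth. The concentration for full growth arrest is given as TGI.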

Assays:
Assay in all cases: inhibition of tumour cell growth, NCI panel, 48 h
[1] = system: KM12 colon
[2] = system: U251 CNS
[3] = system: T-47D breast
[4] = system: SK-MEL-28 melanoma
[5] = system: SK-MEL-2 melanoma
[6] = system: NCI-H23 lung
[7] = system: NCI-H460 lung
[8] = system: IGROV1 ovarian
[9] = system: HCT-116 colon
[10] = system: RXF 393 renal
[11] = system: M14 melanoma
[12] = system: COLO 205 colon
[13] = system: SW-620 colon
[14] = system: K-562 leukemia
[15] = system: MDA-MB-231 breast
[16] = system: LOX IMVI melanoma
[17] = system: OVCAR-4 ovarian
[18] = system: SF-539 CNS
[19] = system: NCI-H226 lung
[20] = system: PC-3 prostate
[21] = system: NCI-H522 lung
[22] = system: HOP-92 NSCLC
[23] = system: SR leukemia
[24] = system: HS 578T breast
[25] = system: HCC-2998 colon
[26] = system: HCT-15 colon
[27] = system: DU-145 prostate
[28] = system: TK-10 renal
[29] = system: A498 renal
[30] = system: 786-0 renal
[31] = system: SNB-19 CNS
[32] = system: CCRF-CEM leukemia
[33] = system: SF-295 CNS
[34] = system: SF-268 CNS
[35] = system: SNB-75 CNS
[36] = system: MDA-MB-435
[37] = system: SN12C renal
[38] = system: EKVX NSCLC
[39] = system: HT29 colon
[40] = system: A549 NSCLC
[41] = system: OVCAR-5 ovarian
[42] = system: MOLT-4 leukemia
[43] = system: NCI/ADR-RES ovarian
[44] = system: UACC-62 melanoma
[45] = system: SK-MEL-5 melanoma
[46] = system: CAKI-1 renal
[47] = system: OVCAR-3 ovarian
[48] = system: HOP-62 NSCLC
[49] = system: HL-60(TB) leukemia
[50] = system: SK-OV-3 ovarian
[51] = system: OVCAR-8 ovarian
[52] = system: UO-31 renal
[53] = system: MCF7 breast
[54] = system: UACC-257 melanoma
[55] = system: MALME-3M melanoma
[56] = system: BT-549 breast
[57] = system: ACHN renal
[58] = system: RPMI-8226 leukemia

COc1ccc(-c2cc(-c3ccccc3)nc(SCCCC(=O)NO)n2)cc1OC
GI50 [1]: 2.83 µM
TGI [1]: 11 µM
GI50 [2]: 1.51 µM
TGI [2]: 7.69 µM
GI50 [3]: 0.824 µM
TGI [3]: 9.39 µM
GI50 [4]: 1.23 µM
TGI [4]: 3.66 µM
GI50 [5]: 1.76 µM
TGI [5]: 7.39 µM
GI50 [6]: 1.57 µM
TGI [6]: 4.8 µM
GI50 [7]: 621 nM
TGI [7]: 9.81 µM
GI50 [8]: 1.64 µM
TGI [8]: 5.05 µM
GI50 [9]: 701 nM
TGI [9]: 10 µM
GI50 [10]: 1010 nM
TGI [10]: 2.78 µM
GI50 [11]: 1.02 µM
TGI [11]: 2.82 µM
GI50 [12]: 2100 nM
TGI [12]: 5.95 µM
GI50 [13]: 539 nM
TGI [13]: 11.3 µM
GI50 [14]: 812 nM
TGI [14]: > 100 µM
GI50 [15]: 1.56 µM
TGI [15]: 8.27 µM
GI50 [16]: 1.07 µM
TGI [16]: 2440 nM
GI50 [17]: 1.68 µM
TGI [17]: 7.76 µM
GI50 [18]: 1.35 µM
TGI [18]: 3.38 µM
GI50 [19]: 1.69 µM
TGI [19]: 5.54 µM
GI50 [20]: 1.39 µM
TGI [20]: 5.62 µM
GI50 [21]: 1.32 µM
TGI [21]: 5.36 µM
GI50 [22]: 1140 nM
TGI [22]: 3.99 µM
GI50 [23]: 339 nM
TGI [23]: 20.4 µM
GI50 [24]: 1.41 µM
TGI [24]: 9.44 µM
GI50 [25]: 1.44 µM
TGI [25]: 3.59 µM
GI50 [26]: 406 nM
TGI [26]: 2620 nM
GI50 [27]: 1.41 µM
TGI [27]: 6.85 µM
GI50 [28]: 0.409 µM
TGI [28]: 8.87 µM
GI50 [29]: 345 nM
TGI [29]: 1720 nM
GI50 [30]: 1.28 µM
TGI [30]: 5.02 µM
GI50 [31]: 2290 nM
TGI [31]: 10.9 µM
GI50 [32]: 398 nM
TGI [32]: 11.1 µM
GI50 [33]: 887 nM
TGI [33]: 2510 nM
GI50 [34]: 2.15 µM
TGI [34]: 5.68 µM
GI50 [35]: 1090 nM
TGI [35]: 4.51 µM
GI50 [36]: 1740 nM
TGI [36]: 6.28 µM
GI50 [37]: 1.54 µM
TGI [37]: 6.15 µM
GI50 [38]: 1180 nM
TGI [38]: 8.6 µM
GI50 [39]: 2080 nM
TGI [39]: 7.06 µM
GI50 [40]: 2060 nM
TGI [40]: 7.05 µM
GI50 [41]: 1.16 µM
TGI [41]: 5.43 µM
GI50 [42]: 832 nM
TGI [42]: 11.4 µM
GI50 [43]: 0.793 µM
TGI [43]: 4.35 µM
GI50 [44]: 1.06 µM
TGI [44]: 3.11 µM
GI50 [45]: 0.631 µM
TGI [45]: 2.09 µM
GI50 [46]: 0.452 µM
TGI [46]: 2.83 µM
GI50 [47]: 1.32 µM
TGI [47]: 5.36 µM
GI50 [48]: 0.626 µM
TGI [48]: 3.38 µM
GI50 [49]: 3240 nM
TGI [49]: 11.7 µM
GI50 [50]: 1690 nM
TGI [50]: 5.05 µM
GI50 [51]: 490 nM
TGI [51]: 11.9 µM
GI50 [52]: 338 nM
TGI [52]: 1.48 µM
GI50 [53]: 2300 nM
TGI [53]: 9.63 µM
GI50 [54]: 1.43 µM
TGI [54]: 7.94 µM
GI50 [55]: 0.761 µM
TGI [55]: 5.71 µM
GI50 [56]: 3320 nM
TGI [56]: 12.4 µM
GI50 [57]: 410 nM
TGI [57]: 1.81 µM

COc1cc2ccnc(C=O)c2cc1OC
GI50 [1]: 31.9 µM
TGI [1]: > 100 µM
GI50 [2]: 28.7 µM
TGI [2]: > 100 µM
GI50 [3]: 14 µM
TGI [3]: > 100 µM
GI50 [4]: 12.4 µM
TGI [4]: > 100 µM
GI50 [5]: 37.1 µM
TGI [5]: > 100 µM
GI50 [6]: 24.9 µM
TGI [6]: > 100 µM
GI50 [7]: > 100000 nM
TGI [7]: > 100 µM
GI50 [8]: 22.8 µM
TGI [8]: > 100 µM
GI50 [9]: 1920 nM
TGI [9]: 14.8 µM
GI50 [10]: 1450 nM
TGI [10]: 4.98 µM
GI50 [11]: 4.98 µM
TGI [11]: 28.5 µM
GI50 [12]: > 100000 nM
TGI [12]: > 100 µM
GI50 [13]: 4150 nM
TGI [13]: > 100 µM
GI50 [14]: 4840 nM
TGI [14]: > 100 µM
GI50 [15]: 6.51 µM
TGI [15]: 75.1 µM
GI50 [16]: 10.1 µM
TGI [16]: > 100000 nM
GI50 [17]: 5.11 µM
TGI [17]: 24.2 µM
GI50 [58]: 3.44 µM
TGI [58]: 34.8 µM
GI50 [18]: 5.65 µM
TGI [18]: 29.7 µM
GI50 [19]: 29.9 µM
TGI [19]: > 100 µM
GI50 [20]: 23.9 µM
TGI [20]: > 100 µM
GI50 [21]: 12.5 µM
TGI [21]: 31.3 µM
GI50 [22]: 1180 nM
TGI [22]: 5.93 µM
GI50 [23]: 696 nM
TGI [23]: > 100 µM
GI50 [24]: 23.8 µM
TGI [24]: > 100 µM
GI50 [25]: 23.8 µM
TGI [25]: > 100 µM
GI50 [26]: 3430 nM
TGI [26]: > 100000 nM
GI50 [27]: 4.83 µM
TGI [27]: > 100 µM
GI50 [28]: 6.02 µM
TGI [28]: 44.1 µM
GI50 [29]: > 100000 nM
TGI [29]: > 100000 nM
GI50 [30]: 18.3 µM
TGI [30]: > 100 µM
GI50 [31]: > 100000 nM
TGI [31]: > 100 µM
GI50 [32]: 3080 nM
TGI [32]: 22.1 µM
GI50 [34]: 23.5 µM
TGI [34]: > 100 µM
GI50 [36]: 2630 nM
TGI [36]: 24.9 µM
GI50 [37]: 12.1 µM
TGI [37]: > 100 µM
GI50 [39]: 3300 nM
TGI [39]: > 100 µM
GI50 [40]: > 100000 nM
TGI [40]: > 100 µM
GI50 [41]: 17 µM
TGI [41]: > 100 µM
GI50 [42]: 4520 nM
TGI [42]: 41.4 µM
GI50 [43]: 16 µM
TGI [43]: > 100 µM
GI50 [44]: 6.87 µM
TGI [44]: 38.1 µM
GI50 [45]: 10.7 µM
TGI [45]: 23.6 µM
GI50 [46]: 23 µM
TGI [46]: 85.2 µM
GI50 [47]: 6.36 µM
TGI [47]: 90.6 µM
GI50 [48]: 18.2 µM
TGI [48]: 98.1 µM
GI50 [49]: 2200 nM
TGI [49]: 5.89 µM
GI50 [50]: > 100000 nM
TGI [50]: > 100 µM
GI50 [51]: 5450 nM
TGI [51]: 63.4 µM
GI50 [52]: 3980 nM
TGI [52]: 42.2 µM
GI50 [53]: 3640 nM
TGI [53]: > 100 µM
GI50 [54]: 18.9 µM
TGI [54]: > 100 µM
GI50 [55]: 14.7 µM
TGI [55]: > 100 µM
GI50 [56]: 2680 nM
TGI [56]: 7.14 µM
GI50 [57]: 4710 nM
TGI [57]: 54.8 µM
